Data set [1] has as its target T1, RPH-Lm (rifampin phosphotransferase) (Listeria monocytogenes, UniProt A0A0X1KHF9).
T1 construct: full-length from E. coli; crystals and SAXS: His6-tag removed by TEV (pMCSG53 for crystals); kinetics: pET19Tb:rph-Lm; monomer; ATP-grasp 1-314, RIF-BD 327-754, swivel 767-865, catalytic His825
Description: SAXS, ensemble optimization. The data set is classed as binding. The following applies: Mg2+; 20 mM Hepes pH 7.5, 100 mM KCl; 10 °C; 10-fold molar excess; non-hydrolysable ATP analogue.

In data set [2] the target is T1, RPH-Lm (rifampin phosphotransferase). Kind of data set: X-ray crystallography. The following applies: crystallized with 5 mM RIF and 5 mM ATP; RIF-binding domain; 2.85 Å.
For data set [3] the target is unchanged. Kind of data set: X-ray crystallography (SAD). Conditions: Se-Met protein; 5 mM RIF; pH 6; RIF-binding domain; 2.70 Å.
Data set [4] has as its system CO[C@H]1/C=C/O[C@@]2(C)Oc3c(C)c(O)c4c(O)c(c(/C=N/N5CCN(C)CC5)c(O)c4c3C2=O)NC(=O)/C(C)=C\C=C\[C@H](C)[C@H](O)[C@@H](C)[C@@H](O)[C@@H](C)[C@H](OC(C)=O)[C@@H]1C. Description: purified protein. The following applies: ATP at five times its Km, 50 mM Hepes pH 7.5, 5 mM MgCl2, 40 mM NH4Cl, 25 °C, 11.3 μM enzyme.

T1 sequence (A0A0X1KHF9 whole entry): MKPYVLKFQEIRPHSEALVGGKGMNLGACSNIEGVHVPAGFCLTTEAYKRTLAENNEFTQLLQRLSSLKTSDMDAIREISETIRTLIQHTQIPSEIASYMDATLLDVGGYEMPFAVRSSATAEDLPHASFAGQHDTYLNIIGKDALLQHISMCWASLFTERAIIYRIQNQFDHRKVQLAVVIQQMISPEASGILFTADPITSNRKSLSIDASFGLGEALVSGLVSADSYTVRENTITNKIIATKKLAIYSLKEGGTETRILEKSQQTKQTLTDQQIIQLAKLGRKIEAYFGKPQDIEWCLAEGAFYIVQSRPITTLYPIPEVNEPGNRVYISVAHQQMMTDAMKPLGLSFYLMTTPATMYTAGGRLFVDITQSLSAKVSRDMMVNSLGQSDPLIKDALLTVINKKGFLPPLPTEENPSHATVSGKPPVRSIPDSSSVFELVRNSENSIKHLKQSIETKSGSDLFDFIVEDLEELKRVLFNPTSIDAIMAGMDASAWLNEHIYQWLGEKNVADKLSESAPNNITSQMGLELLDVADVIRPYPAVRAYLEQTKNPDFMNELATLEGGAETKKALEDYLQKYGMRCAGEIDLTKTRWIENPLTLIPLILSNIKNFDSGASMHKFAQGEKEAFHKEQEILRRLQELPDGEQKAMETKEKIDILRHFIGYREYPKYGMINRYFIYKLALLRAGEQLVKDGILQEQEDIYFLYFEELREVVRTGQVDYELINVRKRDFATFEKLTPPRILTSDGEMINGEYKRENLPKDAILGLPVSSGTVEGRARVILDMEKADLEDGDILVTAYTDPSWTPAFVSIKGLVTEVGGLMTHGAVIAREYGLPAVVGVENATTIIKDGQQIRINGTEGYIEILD

As to `Nc1ncnc2c1ncn2[C@@H]1O[C@H](COP(=O)(O)OP(=O)(O)NP(=O)(O)O)[C@@H](O)[C@H]1O` [AMP-PnP], the “SAXS, ensemble optimization” value in data set [1] was “RPH-Lm bound to either analogue showed an increase in the ATP-grasp engaged population”.
Same read-out and setting: with `Nc1ncnc2c1ncn2[C@@H]1O[C@H](COP(=O)(O)CP(=O)(O)OP(=O)(O)O)[C@@H](O)[C@H]1O` [AMP-cPP] the entry was “RPH-Lm bound to either analogue showed an increase in the ATP-grasp engaged population”.
Regarding `CO[C@H]1/C=C/O[C@@]2(C)Oc3c(C)c(O)c4c(O)c(c(/C=N/N5CCN(C)CC5)c(O)c4c3C2=O)NC(=O)/C(C)=C\C=C\[C@H](C)[C@H](OP(=O)(O)O)[C@@H](C)[C@@H](O)[C@@H](C)[C@H](OC(C)=O)[C@@H]1C` [RIF-P], the X-ray crystallography in data set [2] is 5FBU (RPH-Lm·RIF-P).
In the case of `CO[C@H]1/C=C/O[C@@]2(C)Oc3c(C)c(O)c4c(O)c(c(/C=N/N5CCN(C)CC5)c(O)c4c3C2=O)NC(=O)/C(C)=C\C=C\[C@H](C)[C@H](O)[C@@H](C)[C@@H](O)[C@@H](C)[C@H](OC(C)=O)[C@@H]1C` [RIF], the “X-ray crystallography (SAD)” value in data set [3] is 5FBT (RPH-Lm·RIF).
Consider “RPH-Lm (rifampin phosphotransferase) (Listeria monocytogenes serotype 4b str. F2365)”, for which, in data set [4], the Michaelis-Menten constant (Km) came out at 0.57 ± 0.15 µM, the kcat was determined as 2.25 ± 0.17 s⁻¹ and the kcat/Km is 3.94e+06 M⁻¹ s⁻¹.

The Km is the substrate concentration at which the rate is half of its maximum. As usually defined, the kcat is the number of substrate molecules converted per active site and unit of time at saturation. One may read the kcat/Km as the turnover number divided by the Michaelis constant.
